Test results: patent publication US5693815A, “Peptides” (Schering Corporation, priority 1995, dated 1997)

Target: HIV-1 protease (Human immunodeficiency virus type 1 group M subtype B, UniProt P04585)
Experiment: Inhibition of proteolytic activity of HIV-1 protease, Test 1 (method of Louis et al.)
Type: biochemical
Description: TEST 1--INHIBITION OF PROTEOLYTIC ACTIVITY OF HIV-1-PROTEASE
The ability of compounds of the invention to inhibit the proteolytic activity of HIV-1 protease can be determined by using the method of Louis, et al., Biochem. Biophys. Res. Comm. 159:87-94, (1989), which is herein incorporated by reference. In using the method of Louis et al., HIV Substrate III, His-Lys-Ala-Arg-Val-Leu-pNO2 Phe-Glu-Ala-Nle-Ser-NH2 purchased from Bachem Bioscience, Inc. Philadelphia, Pa. can be used in place of the nonapeptide substrate […]amide.

CC(C)(C)NC(=O)c1ccccc1SCC(O)C(Cc1ccccc1)NC(=O)C1CC2CCCCC2N1C(=O)OC(C)(C)C (stereo not shown) [U, 1-[(1,1-dimethylethoxy)carbonyl]-N-[3-[[2-[[(1,1-dimethylethyl)amino]carbonyl]phenyl]thio]-2(R and/or S)-hydroxy-1(R and/or S)-(phenylmethyl)-propyl]octahydroindole-2-carboxamide]
IC50: 38 µM
